One may read the IC50 as the concentration at which inhibition is half-maximal. Usually Km stands for the substrate concentration at which the rate is half of its maximum.

“And” between values parts separate entries of the source, which are not always exact repeats. Identical values can stand only once. Like-named read-outs stand apart in the source and are kept apart here.

Consider eleven compounds from article PMC9015526, “Mass Spectrometric Assays Reveal Discrepancies in Inhibition Profiles for the SARS‐CoV‐2 Papain‐Like Protease” (Chemmedchem, 2022).

Test [1] deals with T1, SARS‐CoV‐2 PL^pro (Severe acute respiratory syndrome coronavirus 2, UniProt P0DTD1). Description: biochemical.
For test [2], the target named is T1, SARS‐CoV‐2 PL^pro. As to conditions: read-out: Reported IC50, cited from earlier work.
The target in test [3] is T1, SARS‐CoV‐2 PL^pro. As to conditions: Fluorescence, cited from earlier work.
The mark [4] stands for this setting: 0.2 μM PL^pro, 2.0 μM nsp2/3 peptide 2, 50 mM Tris pH 8.0, n=2, mean±SD, read-out: SPE‐MS IC50.

`Cc1cc(O)c2c(=O)c3c(O)cc(O)c4c5c(O)cc(O)c6c(=O)c7c(O)cc(C)c8c1c2c(c34)c(c78)c65` [Hypericin]: the “PL^pro inhibition in SPE‐MS assay (in words)” value (“PL^pro inhibition” below) on SARS‐CoV‐2 PL^pro [1] was “did not inhibit”. The IC50 at SARS‐CoV‐2 PL^pro [1] (SPE‐MS IC50) was over 50 µM.

As to `CC(C)(F)C[C@H](N[C@@H](c1ccc(-c2ccc(S(C)(=O)=O)cc2)cc1)C(F)(F)F)C(=O)NC1(C#N)CC1` [MK‐0822, odanacatib], the “PL^pro inhibition” value on SARS‐CoV‐2 PL^pro [1] is “does not inhibit”. In addition, on SARS‐CoV‐2 PL^pro [1] (setting [4]), the IC50 was over 50 µM. In the case of `Cc1ccc(-n2sc3ccccc3c2=O)cc1` [PBIT, 2‐(para‐tolyl)benzo[d]isothiazol‐3(2H)‐one], the IC50 against SARS‐CoV‐2 PL^pro [1] (SPE‐MS IC50) is ~0.3 µM and 0.3 µM. The same measure, in the same setting: as for `CC(=O)Nc1ccc(C)c(C(=O)N[C@H](C)c2cccc3ccccc23)c1` [PL^pro inhibitor 6], the figure is ~12.5 µM and 12.5 µM.

As for `CCOC(=O)C[C@H](NC(=O)[C@H](C)NC(=O)[C@@H](NC(=O)OCc1ccccc1)C(C)C)C(=O)COC(=O)c1c(Cl)cccc1Cl` [SDZ‐224015], the “PL^pro inhibition” value on SARS‐CoV‐2 PL^pro [1] is recorded as “does not inhibit”. The IC50 on SARS‐CoV‐2 PL^pro [1] (setting [4]) is over 50 µM.

As to `COCCn1c2c([n+](Cc3cnccn3)c1C)C(=O)c1ccccc1C2=O` [YM‐155, sepantronium bromide], the half-maximal inhibitory concentration (IC50) at SARS‐CoV‐2 PL^pro [1] (SPE‐MS IC50) was over 50 µM.

In the case of `CN(C)C/C=C/C(=O)Nc1cc2c(Nc3ccc(F)c(Cl)c3)ncnc2cc1O[C@H]1CCOC1` [afatinib], the IC50 was 11 to 16 µM on SARS‐CoV‐2 PL^pro [2] and over 50 µM on SARS‐CoV‐2 PL^pro [1] (SPE‐MS IC50). Further, the “PL^pro inhibition” value on SARS‐CoV‐2 PL^pro [1] was “inactive”. Regarding `CC(=O)OC[C@H]1O[C@@H]([S-])[C@H](OC(C)=O)[C@@H](OC(C)=O)[C@@H]1OC(C)=O.CCP(CC)CC.[Au+]` [auranofin], the “PL^pro inhibition” value on SARS‐CoV‐2 PL^pro [1] is “potently inhibit”. Same read-out and setting: next, `C[C@H]1COC2=C1C(=O)C(=O)c1c2ccc2c1CCCC2(C)C` [cryptotanshinone]: “did not, at least efficiently, inhibit”. On to `COc1cc2ncnc(Nc3ccc(F)c(Cl)c3)c2cc1NC(=O)/C=C/CN1CCCCC1` [dacomitinib], for which the IC50 was 3 to 5 µM on SARS‐CoV‐2 PL^pro [2] (FRET‐based assays, ref 8b) and over 50 µM on SARS‐CoV‐2 PL^pro [1] (setting [4]). For the same compound, the “PL^pro inhibition” value on SARS‐CoV‐2 PL^pro [1] was “inactive”. With Cbz‐RLRGG‐Amc, the values for the Km on SARS‐CoV‐2 PL^pro [3] (ref 14) and on SARS‐CoV‐2 PL^pro [3] (ref 18) were 6.9 ± 1.4 µM and 70.9 ± 10.2 µM, respectively.
